Results on 13 molecules are retold here after US20250051319A1 (AUGUSTINE THERAPEUTICS, priority 2021, published 2025).

The assay deals with catalytic domain 2 (CD2) of HDAC6 (Homo sapiens (Human), UniProt Q9UBN7). The assay is described as follows: Cellular target engagement assay - NanoBRET. Format: cell-based. As to conditions: NanoLuc-HDAC6(CD2) in HEK293T cells, 2 hours, read-out: IC50 (HDAC6(CD2) interaction). As for the experimental part:
NanoBRET target engagement was performed against the catalytic domain 2 (CD2) of HDAC6, with minor modifications of kit manufacturer protocol (Promega). Expression of exogenous NanoLuc-HDAC6(CD2) fusion and in HEK293T was achieved following transient transfection with FuGENE HD Transfection Reagent (Promega). The intracellular target engagement assay on HDAC6(CD2) was performed in a 384-well plate format with 8,000 cells per well and a tracer concentration of 0.125 μM or 0.600 μM for HDAC6(CD2). Compounds (dissolved in 100% DMSO) or DMSO (vehicle) were added either manually by diluting them in culture medium at 8× final assay concentration and then adding 5 μL to assay plate or in an automated way by adding […] compound to 5 μL OptiMEM without phenol red (Gibco) using the Echo650 (Labcyte). Tracer solution was added to the cells before seeding 35 μL cell/tracer mixture in the assay plate. The final reaction volume was 40 μL, final DMSO concentration was 1.4% (manual compound addition) or 1.25% (automated compound addition). Assay plates were incubated at 37° C. in a humidified atmosphere containing 5% C02 for 2 hours. The NanoBRET Nano-glo Substrate/Inhibitor was prepared by diluting NanoBRET Nano-Glo Substrate (1:332) and Extracellular Inhibitor (1:1000) in assay medium (Promega). […] BRET ratios were calculated from acceptor/donor signal ratio (mBRET=acceptor/donor*1000) and normalized for each plate. Percentage inhibition was calculated by setting the mBRET obtained with cells without tracer to 100%, while the mBRET obtained with uninhibited cells with tracer was set to 0%. IC50-values were calculated from the percentage inhibition with the log(inhibitor) vs. response—Variable slope (four parameters) nonlinear regression in GraphPad Prism software.
(BRET reads energy transfer from a luciferase to a nearby fluorophore.)

Sequence of catalytic domain 2 (CD2) of HDAC6 (Q9UBN7 482-800): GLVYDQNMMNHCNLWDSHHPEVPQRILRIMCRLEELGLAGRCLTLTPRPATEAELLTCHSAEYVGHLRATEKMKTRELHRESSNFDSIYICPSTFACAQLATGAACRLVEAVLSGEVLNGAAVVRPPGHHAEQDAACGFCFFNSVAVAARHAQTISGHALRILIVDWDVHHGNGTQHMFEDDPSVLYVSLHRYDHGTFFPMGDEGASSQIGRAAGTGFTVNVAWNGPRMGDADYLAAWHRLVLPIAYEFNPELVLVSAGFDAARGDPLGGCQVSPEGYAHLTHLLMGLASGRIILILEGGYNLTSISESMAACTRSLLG

As a reminder, the IC50 is the point on the concentration scale where inhibition reaches its midpoint. Turning to `Cn1ncc2c(SCC(=O)c3ccc(CNC(=O)C(C)(C)C)s3)ncnc21` [Compound 102, N-((5-(2-((1-methyl-1H-pyrazolo[3,4-d]pyrimidin-4-yl)thio)acetyl)thiophen-2-yl)methyl)pivalamide], the IC50 is 100 to 500 nM.
With `CC(=O)NCCc1ccc(C(=O)CSc2nc3nc(C)ccc3o2)s1` [Compound 104, N-(2-(5-(2-((5-methyloxazolo[4,5-b]pyridin-2-yl)thio)acetyl)thiophen-2-yl)ethyl)acetamide], the IC50 fell in the range of 100 to 500 nM.
In the case of `O=C(CO)NCc1ccc(C(=O)CSc2nc3cc(C(F)(F)F)ccc3o2)s1` [Compound 105, 2-hydroxy-N-((5-(2-((5-(trifluoromethyl)benzo[d]oxazol-2-yl)thio)acetyl)thiophen-2-yl)methyl)acetamide] it was 1000 to 10000 nM; in that of `Cc1nc(SCC(=O)c2ccc(CNC(=O)CO)s2)c2cc(C3CC3)ccc2n1` [Compound 106, N-((5-(2-((6-cyclopropyl-2-methylquinazolin-4-yl)thio)acetyl)thiophen-2-yl)methyl)-2-hydroxyacetamide], not above 100 nM.
Consider `Cc1cc2nc(C(F)(F)F)nc(SCC(=O)c3ccc(CNC(=O)CO)s3)n2n1` [Compound 107, 2-hydroxy-N-((5-(2-((7-methyl-2-(trifluoromethyl)pyrazolo[1,5-a][1,3,5]triazin-4-yl)thio)acetyl)thiophen-2-yl)methyl)acetamide], for which the IC50 is 100 to 500 nM.
Regarding `Cc1nc(SCC(=O)c2ccc(CNC(=O)C3CC3(F)F)s2)c2cccnc2n1` (stereo not shown) [Compound 110, 2,2-difluoro-N-((5-(2-((2-methylpyrido[2,3-d]pyrimidin-4-yl)thio)acetyl)thiophen-2-yl)methyl)cyclopropane-1-carboxamide], the IC50 was 100 to 500 nM.
For `Cn1cc2c(SCC(=O)c3ccc(CNC(=O)C4CC4(F)F)s3)nc(C(F)(F)F)nc2n1` (stereo not shown) [Compound 111, 2,2-difluoro-N-((5-(2-((2-methyl-6-(trifluoromethyl)-2H-pyrazolo[3,4-d]pyrimidin-4-yl)thio)acetyl)thiophen-2-yl)methyl)cyclopropane-1-carboxamide], the IC50 is 100 to 500 nM.
The figure for `O=C(CO)NCc1ccc(C(=O)CSc2nc(C(F)(F)F)nc3cc(C4CC4)nn23)s1` [Compound 112, N-((5-(2-((7-cyclopropyl-2-(trifluoromethyl)pyrazolo[1,5-a][1,3,5]triazin-4-yl)thio)acetyl)thiophen-2-yl)methyl)-2-hydroxyacetamide] is not above 100 nM; for `Cc1nc(SCC(=O)c2ccc(CNC(=O)C3CC3(F)F)s2)c2cc(OC(F)(F)F)ccc2n1` (stereo not shown) [Compound 120, 2,2-difluoro-N-((5-(2-((2-methyl-6-(trifluoromethoxy)quinazolin-4-yl)thio)acetyl)thiophen-2-yl)methyl)cyclopropane-1-carboxamide] it is 100 to 500 nM.
For the molecule `COc1cc2c(SCC(=O)c3ccc(CNC(=O)CO)s3)nc(C)nc2cn1` [Compound 121, 2-hydroxy-N-((5-(2-((6-methoxy-2-methylpyrido[3,4-d]pyrimidin-4-yl)thio)acetyl)thiophen-2-yl)methyl)acetamide], the half-maximal inhibitory concentration (IC50) is not above 100 nM.
In the case of `O=C(CSc1nc(C(F)(F)F)nc2ncccc12)c1ccc(CNS(=O)(=O)C2CC2)s1` [Compound 122, N-((5-(2-((2-(trifluoromethyl)pyrido[2,3-d]pyrimidin-4-yl)thio)acetyl)thiophen-2-yl)methyl)cyclopropanesulfonamide], the IC50 was not above 100 nM.
The figure for `O=C(CSc1nc(C(F)(F)F)nc2ncccc12)c1ccc(CNS(=O)(=O)CC(F)(F)F)s1` [Compound 123, 2,2,2-trifluoro-N-((5-(2-((2-(trifluoromethyl)pyrido[2,3-d]pyrimidin-4-yl)thio)acetyl)thiophen-2-yl)methyl)ethane-1-sulfonamide] is not above 100 nM.
The figure for `CCS(=O)(=O)NCc1ccc(C(=O)CSc2nc(C(F)(F)F)nc3ncccc23)s1` [Compound 127, N-((5-(2-((2-(trifluoromethyl)pyrido[2,3-d]pyrimidin-4-yl)thio)acetyl)thiophen-2-yl)methyl)ethanesulfonamide] is not above 100 nM.
